Structures can show the parent of a compound that is named as a salt.
What was measured:
[1] = water solubility (observation at preparation); assay type: physicochemical
Method: 3.95 g of S-[2',4'-difluoro-4-hydroxy-(1,1'-diphenyl)-3-carbonyl]-N-acetyl-L-cysteine (5) are added with 2.92 g of lysine base as a 50% aqueous solution, 8 ml of water and 20 ml of acetone; the mixture is stirred until a clear solution is obtained and filtered. Under stirring the mixture is diluted up to 100 ml with acetone, cooled to -10°C for a night, filtered and dried in a stove at 50-60°C under vacuum. A white, water soluble product is obtained having melting point of 179-184°C, with a yield of 92%.

[2] = tested on: carrageen induced paw oedema; test: carrageen induced paw oedema in the rat (anti-inflammatory activity); assay type: in vivo; conditions: administered 1h before the carrageen, 10 animals
Excerpt: (§1) The pharmaco-toxicological properties of the compounds '1 have been studied in comparison with diflunisal and with N-acetylcysteine, in order to evaluate the pharmacological and toxicological properties of the compounds of the invention with respect to those of the starting compounds. The results relating to the compound 5 (see scheme I) are hereinafter reported, only for illustrative and not for limiting purpose.

[3] = tested on: phenylquinone induced writhing; test: phenylquinone induced writhing in the mouse (analgesic activity); assay type: in vivo; conditions: 10 animals
Excerpt: as §1

sacrospinalis muscle = test: histolesivity, intramuscular injection in the sacrospinalis muscle of rabbit; assay type: in vivo; conditions: equimolar doses
Excerpt: (§2) Other toxicological features of the compound 5 have been also studied, more particularly the histolesivity (intramuscular injection in the sacrospinalis muscle of rabbit) and the gastrolesivity (ulcers after oral administration in the rat).

ulcers = test: gastrolesivity, ulcers after oral administration in the rat; assay type: in vivo; conditions: equimolar doses
Excerpt: as §2

[4] = plasma levels of diflunisal after oral administration in the rat (pharmacokinetics); assay type: in vivo; conditions: 40 umol/kg, oral dose 0.04 mmol/kg
Excerpt: Lastly, some pharmacokinetic properties of the compound 5 have been investigated, by measuring the plasma levels of diflunisal after oral administration of 0.04 mmol/kg p.o. in the rat, this dose being close to the therapeutical one. [table]

| Compound | solubility in water [1] | INIBITION % (medium value ± s.e.) anti-inflammatory activity (a) ([2]; 0.040 mmol kg^-1 p.o.) | INIBITION % (medium value ± s.e.) anti-inflammatory activity (a) ([2]; 0.120 mmol kg^-1 p.o.) | INIBITION % (medium value ± s.e.) anti-inflammatory activity (a) ([2]; 0.400 mmol kg^-1 p.o.) | INIBITION % (medium value ± s.e.) analgesic activity (b) ([3]; 0.040 mmol kg^-1 p.o.) | INIBITION % (medium value ± s.e.) analgesic activity (b) ([3]; 0.120 mmol kg^-1 p.o.) | INIBITION % (medium value ± s.e.) analgesic activity (b) ([3]; 0.400 mmol kg^-1 p.o.) | histolesivity (sacrospinalis muscle) | gastrolesivity (ulcers) | Cmax [4] | AUC(0-inf) ([4]; read-out: o → oo) | Tmax ([4]; read-out: tC max) | half-life ([4]; read-out: t½ (converted)) |
| --- | --- | --- | --- | --- | --- | --- | --- | --- | --- | --- | --- | --- | --- |
| CC(=O)N[C@@H](CSC(=O)c1cc(-c2ccc(F)cc2F)ccc1O)C(=O)O [Example 8, S-/ 2',4'-difluoro-4-hydroxy-(1,1'-diphenyl)-3-carbonyl]-N-acetyl-L-cysteine lysine salt] | water soluble | – | – | – | – | – | – | – | – | – | – | – | – |
| O=C(O)c1cc(-c2ccc(F)cc2F)ccc1O [Diflunisal, 2',4'-difluoro-4-hydroxy-(1,1'-diphenyl)-3-carboxylic acid] | – | 29.6 ± 5.4% | 50.3 ± 2.0% | 53.9 ± 4.7% | 9.5 ± 6.2% | 16.6 ± 15.9% | 39.6 ± 9.8% | high | high | 39700 ng/mL | 345 µg·h/mL | 3 h | 4.2 h |

From patent EP0144519A1, “2',4'-Difluoro-4-hydroxy-(1,1'-diphenyl)-3-carboxylic derivatives of N-acetylcysteine and of S-carboxymethylcysteine having anti-inflammatory and mucolytic activity, process for their preparation and related pharmaceutical compositions” (priority 1983, dated 1985)
